Data on one compound can be found in patent US10603319B2, “Pyrimidine derivatives and their use in treating or preventing a respiratory syncytial virus infection” (REVIRAL LIMITED, priority 2016, dated 2020).

The data set relates to P-gp (MDR1), human. The data set can be described thus: in vitro. It is filed as in vitro ADME. Conditions: dog, MDCK-MDR1. As for the experimental part:
MDR I-MDCK Permeability: Experimental Procedure
MDR1-MDCK cells obtained from the NIH (Rockville, Md., USA) are used between passage numbers 6-30. Cells are seeded onto Millipore Multiscreen Transwell plates at 3.4×10^5 cells/cm2. The cells are cultured in DMEM and media is changed on day 3. On day 4 the permeability study is performed. Cell culture and assay incubations are carried out at 37° C. in an atmosphere of 5% CO2 with a relative humidity of 95%. On the day of the assay, the monolayers are prepared by rinsing both basolateral and apical surfaces twice with Hanks Balanced Salt Solution (HBSS) at the desired pH warmed to 37° C. Cells are then incubated with HBSS at the desired pH in both apical and basolateral compartments for 40 min to stabilise physiological parameters.
The dosing solutions are prepared by diluting test compound with assay buffer to give a final test compound concentration of 10 μM (final DMSO concentration of 1% v/v). […]
Test compound permeability is assessed in duplicate. […]
Test and control compounds are quantified by LC-MS/MS cassette analysis using an 8-point calibration with appropriate dilution of the samples. The starting concentration (C0) is determined from the dosing solution and the experimental recovery calculated from C0 and both apical and basolateral compartment concentrations. […]

For the compound `NC1CCN(c2ncc(CN3C(=O)C4(CC4)c4ccc(F)cc43)c(N[C@H]3CC[C@H](O)CC3)n2)C1` (some centres unmarked) [Compound 2, 1′-((2-(3-Aminopyrrolidin-1-yl)-4-(((1r,4r)-4-hydroxycyclohexyl)amino)pyrimidin-5-yl)methyl)-6′-fluorospiro[cyclopropane-1,3′-indolin]-2′-one], the Papp A→B at 60 min, 10 μM worked out at 3.2 nm/s and the Papp B→A at 60 min, 10 μM is 79.9 nm/s.

By Papp A→B is commonly meant the apparent permeability from the apical to the basolateral side of a cell layer. A higher Papp A→B goes with ready permeation. Usually Papp B→A stands for the apparent permeability from the basolateral to the apical side of a cell layer.
